# Experiments:
# [1] = pH 4.5-7.4; cited from earlier work
# [2] = Aqueous solubility of Dabigatran etexilate in presence of solubility enhancers; format: physicochemical
# Source text: However, based on data presented in Table I, TPGS (tocopherol polyethylene glycol succinate) would be expected to be a poor solubilizer by one skilled in the art. […] The present invention provides pharmaceutical compositions and method of administration of Dabigatran etexilate to overcome the clinical limitations posed by gastrointestinal delivery, specifically by increasing the solubility of Dabigatran etexilate, while maintaining it in its most bioavailable form to ascertain an effective transport through the oral mucous membranes so it effectively can exert its anticoagulant activity. We have observed that the use of pharmaceutical solubilizers such as d-alpha Tocopherol polyethylene glycol succinate (TPGS) and Polysorbate 80 improved the solubility up to 5-10 mg/mL. Without being bound to any specific mechanism, the enhanced solubility and dissolution of Dabigatran etexilate, when co-formulated with TPGS may likely be due to ability of TPGS to inhibit precipitation and maintain supersaturation of dabigatran free base in the formulation microenvironment during dissolution. Pharmaceutical co-solvents such as Polyethylene Glycol 400 (PEG 400) and Glycerol improved the solubility compared to water alone, but the solubility was still<0.1 mg/mL.
# [3] = Percent of Dabigatran etexilate remaining after exposure to aqueous solutions; format: physicochemical; conditions: 15 minutes
substance,measurement,setting,value
Dabigatran etexilate,Solubility under physiological conditions relevant to oral absorption,[1],virtually insoluble
same,Solubility (mg/ml) 25° C.,"[2]; 2% w/v Polysorbate 80 in 0.01M histidine buffer, pH 7.4, 25° C.",<0.1 mg/mL
same,Solubility (mg/ml) 25° C.,"[2]; 5% w/v Polysorbate 80 in 0.01M histidine buffer, pH 7.5, 25° C.",<0.1 mg/mL
same,Solubility (mg/ml) 25° C.,"[2]; 5% w/v TPGS in 0.01M histidine buffer, pH 7.6, 25° C.",0.37 mg/mL
same,Solubility (mg/ml) 25° C.,"[2]; 10% w/v Glycerol in 0.01M histidine buffer, pH 7.6, 25° C.",<0.1 mg/mL
same,Solubility (mg/ml) 25° C.,"[2]; 10% w/v PEG 400 in 0.01M histidine buffer, pH 7.5, 25° C.",<0.1 mg/mL
same,Solubility with pharmaceutical co-solvents,[2]; Polyethylene Glycol 400 (PEG 400) and Glycerol,< 100 µg/mL
same,Solubility (mg/ml) 25° C.,"[2]; Water, pH 6.5, 25° C.",<0.001 mg/mL
same,% of Initial (23° C.),[3]; Water,21.6%
same,% of Initial (40° C.),[3]; Water,21.0%
same,% of Initial (23° C.),[3]; pH 2 acetate buffer (0.1M),0.2%
same,% of Initial (40° C.),[3]; pH 2 acetate buffer (0.1M),0.2%
same,% of Initial (23° C.),[3]; pH 3 acetate buffer (0.1M),22.4%
same,% of Initial (40° C.),[3]; pH 3 acetate buffer (0.1M),22.2%
same,% of Initial (23° C.),[3]; pH 4 phosphate buffer (0.1M),59.5%
same,% of Initial (40° C.),[3]; pH 4 phosphate buffer (0.1M),55.7%

# From patent US20190008843A1, “PHARMACEUTICAL COMPOSITIONS FOR ON DEMAND ANTICOAGULANT THERAPY” (Kenox Pharmaceuticals Inc, priority 2016, published 2019)
